From PubChem BioAssay AID1745844 (Carcinogenic Potency Database (CPDB), 2022)
Activity calls are given as the source filed them. The rule behind the calls is not given here.

Tested on: rodent lifetime carcinogenesis bioassay, tumor incidence TD50
Test: chronic cancer bioassays in animals – CPDB, compiled studies (AID 1745844)

C=C1C[C@@]23CC[C@H]4[C@@](C)(CCC[C@@]4(C)C(=O)O[C@@H]4O[C@H](CO)[C@@H](O)[C@H](O)[C@H]4O)[C@@H]2CC[C@]1(O[C@@H]1O[C@H](CO)[C@@H](O)[C@H](O)[C@H]1O[C@@H]1O[C@H](CO)[C@@H](O)[C@H](O)[C@H]1O)C3
TD50 (rat, strain F344/DuCrj, females, in feed, site: any site (literature study), lesion: several types, types named in the paper, dosed 104 weeks, study length 108 weeks): 34400 mg/kg/day (inactive)
carcinogen call (rat, strain F344/DuCrj, females, in feed, site: liver, lesion: one or several types, types not named, dosed 104 weeks, study length 108 weeks): negative (inactive)
carcinogen call (rat, strain F344/DuCrj, males, in feed, site: any site (literature study), lesion: several types, types named in the paper, dosed 104 weeks, study length 108 weeks): negative (inactive)
carcinogen call (rat, strain F344/DuCrj, males, in feed, site: liver, lesion: hepatocellular adenoma, dosed 104 weeks, study length 108 weeks): negative (inactive)
TD50 (rat, strain F344/DuCrj, males, in feed, site: liver, lesion: hepatocellular carcinoma, dosed 104 weeks, study length 108 weeks): 101000 mg/kg/day (inactive)

CCOC(=O)[C@H](CCc1ccccc1)N[C@@H](C)C(=O)N1Cc2ccccc2C[C@H]1C(=O)O
TD50 (mouse, strain B6C3F1, females, by gavage, site: any site (literature study), lesion: several types, types named in the paper, dosed 104 weeks, study length 104 weeks): 8160 mg/kg/day (inactive)
carcinogen call (mouse, strain B6C3F1, females, by gavage, site: liver, lesion: hepatocellular adenoma, dosed 104 weeks, study length 104 weeks): negative (inactive)
TD50 (mouse, strain B6C3F1, females, by gavage, site: liver, lesion: hepatocellular carcinoma, dosed 104 weeks, study length 104 weeks): 966 mg/kg/day (inactive)
TD50 (mouse, strain B6C3F1, females, by gavage, site: lung, lesion: adenoma, dosed 104 weeks, study length 104 weeks): 5070 mg/kg/day (inactive)
TD50 (mouse, strain B6C3F1, females, by gavage, site: pituitary gland, lesion: adenoma, dosed 104 weeks, study length 104 weeks): 128 mg/kg/day (inactive)
TD50 (mouse, strain B6C3F1, males, by gavage, site: any site (literature study), lesion: several types, types named in the paper, dosed 104 weeks, study length 104 weeks): 221 mg/kg/day (inactive)
TD50 (mouse, strain B6C3F1, males, by gavage, site: liver, lesion: hepatocellular adenoma, dosed 104 weeks, study length 104 weeks): 623 mg/kg/day (inactive)
TD50 (mouse, strain B6C3F1, males, by gavage, site: liver, lesion: hepatocellular carcinoma, dosed 104 weeks, study length 104 weeks): 1640 mg/kg/day (inactive)
TD50 (mouse, strain B6C3F1, males, by gavage, site: lung, lesion: adenoma, dosed 104 weeks, study length 104 weeks): 2790 mg/kg/day (inactive)
TD50 (mouse, strain B6C3F1, males, by gavage, site: lung, lesion: carcinoma, dosed 104 weeks, study length 104 weeks): 2810 mg/kg/day (inactive)
carcinogen call (rat, strain Wistar, females, by gavage, site: any site (literature study), lesion: several types, types named in the paper, dosed 104 weeks, study length 104 weeks): negative (inactive)
carcinogen call (rat, strain Wistar, females, by gavage, site: liver, lesion: several types, types named in the paper, dosed 104 weeks, study length 104 weeks): negative (inactive)
carcinogen call (rat, strain Wistar, males, by gavage, site: any site (literature study), lesion: several types, types named in the paper, dosed 104 weeks, study length 104 weeks): negative (inactive)
carcinogen call (rat, strain Wistar, males, by gavage, site: liver, lesion: several types, types named in the paper, dosed 104 weeks, study length 104 weeks): negative (inactive)

OC(c1ccc(Cl)cc1)(c1ccc(Cl)cc1)C(Cl)(Cl)Cl
carcinogen call (mouse, strain B6C3F1, females, in feed, site: any site (literature study), lesion: several types, types named in the paper, dosed 78 weeks, study length 91 weeks): negative (inactive)
TD50 (mouse, strain B6C3F1, males, in feed, site: any site (literature study), lesion: several types, types named in the paper, dosed 78 weeks, study length 91 weeks): 59.2 mg/kg/day
TD50 (mouse, strain B6C3F1, males, in feed, site: liver, lesion: hepatocellular adenoma + hepatocellular carcinoma + neoplastic nodule, dosed 78 weeks, study length 91 weeks): 32.9 mg/kg/day
TD50 (mouse, strain B6C3F1, males, in feed, site: liver, lesion: hepatocellular adenoma + hepatocellular carcinoma, dosed 78 weeks, study length 91 weeks): 32.9 mg/kg/day
TD50 (mouse, strain B6C3F1, males, in feed, site: liver, lesion: hepatocellular carcinoma, dosed 78 weeks, study length 91 weeks): 34.8 mg/kg/day
TD50 (mouse, strain B6C3F1, males, in feed, site: lung, lesion: alveolar/bronchiolar adenoma + alveolar/bronchiolar carcinoma, dosed 78 weeks, study length 91 weeks): 616 mg/kg/day
carcinogen call (rat, strain Osborne-Mendel, females, in feed, site: any site (literature study), lesion: several types, types named in the paper, dosed 78 weeks, study length 111 weeks): negative (inactive)
carcinogen call (rat, strain Osborne-Mendel, males, in feed, site: any site (literature study), lesion: several types, types named in the paper, dosed 78 weeks, study length 110 weeks): negative (inactive)
TD50 (rat, strain Osborne-Mendel, males, in feed, site: liver, lesion: hepatocellular adenoma + hepatocellular carcinoma + neoplastic nodule, dosed 78 weeks, study length 110 weeks): 517 mg/kg/day

COc1cc(OC)c2c3c(c(=O)oc2c1)CCC3
carcinogen call (rat, strain Fischer, males, by gavage, site: liver, lesion: one or several types, types not named, dosed 52 weeks, study length 87 weeks): negative (inactive)

CN(N=O)c1ccncc1
carcinogen call (rat, strain BD VI, females, by gavage, site: any site (literature study), lesion: benign tumor, dosed 101 weeks, study length 101 weeks): negative (inactive)
TD50 (rat, strain BD VI, females, by gavage, site: any site (literature study), lesion: malignant tumor, dosed 101 weeks, study length 101 weeks): 26.8 mg/kg/day (inactive)
carcinogen call (rat, strain BD VI, females, by gavage, site: any site (literature study), lesion: several types, types named in the paper, dosed 101 weeks, study length 101 weeks): negative (inactive)
carcinogen call (rat, strain BD VI, females, by gavage, site: liver, lesion: several types, types named in the paper, dosed 101 weeks, study length 101 weeks): negative (inactive)

Cc1cccc(OCC(O)CNC(C)(C)C)c1C (centres undefined)
carcinogen call (mouse, strain B6C3F1, females, in feed, site: any site (literature study), lesion: several types, types named in the paper, dosed 82 weeks, study length 92 weeks): negative (inactive)
carcinogen call (mouse, strain B6C3F1, females, in feed, site: liver, lesion: several types, types named in the paper, dosed 82 weeks, study length 92 weeks): negative (inactive)
carcinogen call (mouse, strain B6C3F1, females, in feed, site: lung, lesion: several types, types named in the paper, dosed 82 weeks, study length 92 weeks): negative (inactive)
TD50 (mouse, strain B6C3F1, males, in feed, site: any site (literature study), lesion: several types, types named in the paper, dosed 82 weeks, study length 92 weeks): 618 mg/kg/day (inactive)
carcinogen call (mouse, strain B6C3F1, males, in feed, site: liver, lesion: several types, types named in the paper, dosed 82 weeks, study length 92 weeks): negative (inactive)
TD50 (mouse, strain B6C3F1, males, in feed, site: lung, lesion: several types, types named in the paper, dosed 82 weeks, study length 92 weeks): 1730 mg/kg/day (inactive)
